According to US9434695B2, “Nitrogenous heterocyclic derivatives and their application in drugs” (SUNSHINE LAKE PHARMA CO., LTD., priority 2012, dated 2016):

Tested on: BHK-21 cells
Assay: inhibition of BHK-21 cell proliferation (CCK-8, optical density at 450 nm)
Assay type: cell-based
Conditions: for IC50: Mesocricetus auratus, inhibition ratio of cell proliferation, 48 hours after dosing, CCK-8; for The ratio with PFD (multiple): ratio of Pirfenidone IC50 from the compound IC50, the bigger the multiple, the better the vitro inhibitory activity, 48 hours
Protocol: Taking BHK-21 cells which in exponential growth phase, collecting and counting the cells which had digestive transfer culture after fusion growth 85-95%, adjusting the cell density to 2×10^4 cells per milliliter, seeding the cells into 96-well plates, 100 μl/well, the cells were incubated in a 5% CO2 incubator at 37° C.
The upper clear liquid of the 96-well plates was removed after the cells adhering to the wall 24 hours. The above compounds were confected into solutions of different concentration and the solutions were added to the wells, 100 μl/well. Each concentration solution in 3 replicates, the cells were subcultured 48 hours after dosing.
3. Testing the Optical Density
10 μl of CCK-8 solution was added to each well 48 hours after dosing, and incubated for 2 hours. The optical density (A) of each well was determined by a microplate reader at 450 nm wavelength. Calculating the inhibition ratio of cell proliferation of each compound is based on A and the inhibition ratio of cell proliferation (inhibition ratio, IR)=(1−value of experimental group (Ai)/value of control group (Ao))×100% and the IC50 of each compound at 48 hours was calculated by data processing software.

Compound | IC50 [µM] | The ratio with PFD (multiple)
Cc1ccc(=O)n(-c2ccc(CN3CCOCC3)c(F)c2)c1 [Example 1, 1-(3-fluoro-4-(morpholinomethyl)phenyl)-5-methylpyridin-2(1H)-one] | 400 | 16.6
Cc1cc(=O)n(-c2ccc(N3CCOCC3)c(F)c2)c(C)n1 [Example 7, 3-(3-fluoro-4-morpholinophenyl)-2,6-dimethylpyrimidin-4(3H)-one] | 740 | 1.35
CCN(CC)c1ccc(-n2c(C)nc(C)cc2=O)cc1F [Example 8, 3-(4-(diethylamino)-3-fluorophenyl)-2,6-dimethylpyrimidin-4(3H)-one] | 1660 | 2.31
Cc1cc(=O)n(-c2ccc(N3CCS(=O)(=O)CC3)c(F)c2)c(C)n1 [Example 10, 3-(4-(1,1-dioxidothiomorpholino)-3-fluorophenyl)-2,6-dimethylpyrimidin-4(3H)-one] | 5550 | 0.72
Cc1cc(=O)n(-c2ccc(N3CCCCC3)c(F)c2)c(C)n1 [Example 11, 3-(3-fluoro-4-(piperidin-1-yl)phenyl)-2,6-dimethylpyrimidin-4(3H)-one] | 1320 | 2.91
Cc1cc(=O)n(-c2ccc(N3CCN(C)CC3)c(F)c2)c(C)n1 [Example 12, 3-(3-fluoro-4-(4-methylpiperazin-1-yl)phenyl)-2,6-dimethylpyrimidin-4(3H)-one] | 1400 | 2.74
Cc1cc(=O)n(-c2cc(F)c3c(c2)OCC2CCCN32)c(C)n1 (centres unmarked) [Example 13, 3-(9-fluoro-2,3,3a,4-tetrahydro-1H-benzo[b]pyrrolo[1,2-d][1,4]oxazin-7-yl)-2,6-dimethylpyrimidin-4(3H)-one] | 1980 | 2.01
Cc1cc(=O)n(-c2cnc(-c3ccc(N4CCOCC4)cc3)s2)c(C)n1 [Example 15, 2,6-dimethyl-3-(2-(4-morpholinophenyl)thiazol-5-yl)pyrimidin-4(3H)-one] | 970 | 3.97
Cc1cc(=O)n(-c2ccc(-n3cccc3)c(F)c2)c(C)n1 [Example 18, 3-(3-fluoro-4-(1H-pyrrol-1-yl)phenyl)-2,6-dimethylpyrimidin-4(3H)-one] | 560 | 8.10
Cc1cc(=O)n(-c2ccc(-n3cccn3)c(F)c2)c(C)n1 [Example 19, 3-(3-fluoro-4-(1H-pyrazol-1-yl)phenyl)-2,6-dimethylpyrimidin-4(3H)-one] | 1190 | 3.21
Cc1cc(=O)n(-c2ccc(N3CCOCC3)c(F)c2)c(COc2cccc(F)c2)n1 [Example 20, 3-(3-fluoro-4-morpholinophenyl)-2-((3-fluorophenoxy)methyl)-6-methylpyrimidin-4(3H)-one] | 40 | 95.70
Cc1cc(=O)n(-c2ccc(N3CCCC3)c(F)c2)c(C)n1 [Example 21, 3-(3-fluoro-4-(pyrrolidin-1-yl)phenyl)-2,6-dimethylpyrimidin-4(3H)-one] | 1300 | 5.57
CCCCN(CCCC)c1ccc(-n2c(C)nc(C)cc2=O)cc1F [Example 22, 3-(4-(di-n-butylamino)-3-fluorophenyl)-2,6-dimethylpyrimidin-4(3H)-one] | 190 | 39.47
Cc1cc(=O)n(-c2ccc(N(CC(C)C)CC(C)C)c(F)c2)c(C)n1 [Example 23, 3-(4-(diisobutylamino)-3-fluorophenyl)-2,6-dimethylpyrimidin-4(3H)-one] | 110 | 30.31
CCCCCCN(CCCCCC)c1ccc(-n2c(C)nc(C)cc2=O)cc1F [Example 24, 3-(4-(di-n-hexylamino)-3-fluorophenyl)-2,6-dimethylpyrimidin-4(3H)-one] | 40 | 60.63
Cc1cc(=O)n(-c2ccc(N(C)CCN3CCOCC3)c(F)c2)c(C)n1 [Example 28, 3-(3-fluoro-4-(methyl(2-morpholinoethyl)amino)phenyl)-2,6-dimethylpyrimidin-4(3H)-one] | 4990 | 1.60
Cc1cc(=O)n(-c2ccc(NCCN3CCOCC3)cc2Cl)c(C)n1 [Example 29, 3-(2-chloro-4-((2-morpholinoethyl)amino)phenyl)-2,6-dimethylpyrimidin-4(3H)-one] | 1050 | 6.82

Compound | IC50 [µM] | The ratio with PFD (multiple)
Cc1cc(=O)n(-c2ccc(NCCCN3CCOCC3)c(F)c2)c(C)n1 [Example 30, 3-(3-fluoro-4-((3-morpholinopropyl)amino)phenyl)-2,6-dimethylpyrimidin-4(3H)-one] | 540 | 13.18
Cc1cc(=O)n(-c2ccc(NCCCCN3CCOCC3)c(F)c2)c(C)n1 [Example 31, 3-(3-fluoro-4-((4-morpholinobutyl)amino)phenyl)-2,6-dimethylpyrimidin-4(3H)-one] | 2220 | 3.50
CCCOCCN(CCOCCC)c1ccc(-n2c(C)nc(C)cc2=O)cc1F [Example 32, 3-(4-(bis(2-propoxyethyl)amino)-3-fluorophenyl)-2,6-dimethylpyrimidin-4(3H)-one] | 810 | 9.60
CCCCCCNc1ccc(-n2c(C)nc(C)cc2=O)cc1F [Example 33, 3-(3-fluoro-4-(hexylamino)phenyl)-2,6-dimethylpyrimidin-4(3H)-one] | 300 | 25.70
CCOCCCNc1ccc(-n2c(C)nc(C)cc2=O)cc1F [Example 34, 3-(4-((3-ethoxypropyl)amino)-3-fluorophenyl)-2,6-dimethylpyrimidin-4(3H)-one] | 2490 | 3.10
Cc1cc(=O)n(-c2ccc(NCCCn3ccnc3)c(F)c2)c(C)n1 [Example 35, 3-(4-((3-(1H-imidazol-1-yl)propyl)amino)-3-fluorophenyl)-2,6-dimethylpyrimidin-4(3H)-one] | 3010 | 2.60
Cc1cc(=O)n(-c2ccc(NCCN3CCCCC3)c(F)c2)c(C)n1 [Example 36, 3-(3-fluoro-4-((2-(piperidin-1-yl)ethyl)amino)phenyl)-2,6-dimethylpyrimidin-4(3H)-one] | 2700 | 2.90
Cc1cc(=O)n(-c2ccc(NCCCn3cnnn3)c(F)c2)c(C)n1 [Example 37, 3-(4-((3-(1H-tetrazol-1-yl)propyl)amino)-3-fluorophenyl)-2,6-dimethylpyrimidin-4(3H)-one] | 4310 | 1.80
Cc1cc(=O)n(-c2ccc(NCCc3cc4ccccc4[nH]3)c(F)c2)c(C)n1 [Example 38, 3-(4-((2-(1H-indol-2-yl)ethyl)amino)-3-fluorophenyl)-2,6-dimethylpyrimidin-4(3H)-one] | 490 | 15.80
CCCCCCN(CCCCCC)c1ccc(-n2c(C)nc(C)cc2=O)cc1Cl [Example 40, 3-(3-chloro-4-(dihexylamino)phenyl)-2,6-dimethylpyrimidin-4(3H)-one] | 60 | 127.50
CCCCCCN(CCCCCC)c1ccc(-n2c(C)nc(C)cc2=O)cc1Br [Example 41, 3-(3-bromo-4-(dihexylamino)phenyl)-2,6-dimethylpyrimidin-4(3H)-one] | 60 | 32.65
CCCCCCN(CCCCCC)c1ccc(-n2c(C)nc(C)cc2=O)cc1C#N [Example 42, 2-(dihexylamino)-5-(2,4-dimethyl-6-oxopyrimidin-1(6H)-yl)benzonitrile] | 70 | 27.39
Cc1cc(=O)n(-c2ccc(NC(C)(C)Cc3ccc4ccccc4c3)c(Cl)c2)c(C)n1 [Example 45, 3-(3-chloro-4-((2-methyl-1-(naphthalen-2-yl)propan-2-yl)amino)phenyl)-2,6-dimethylpyrimidin-4(3H)-one] | 70 | 42.60
Cc1cc(=O)n(-c2ccc(N3CCOCC3)c(Cl)c2)c(C)n1 [Example 46, 3-(3-chloro-4-morpholinophenyl)-2,6-dimethylpyrimidin-4(3H)-one] | 1070 | 2.80
Cc1cc(=O)n(-c2ccc(N3CCOCC3)c(C(F)(F)F)c2)c(C)n1 [Example 47, 2,6-dimethyl-3-(4-morpholino-3-(trifluoromethyl)phenyl)pyrimidin-4(3H)-one] | 930 | 3.92
Cc1cc(=O)n(-c2ccc3ccn(COc4cccc(C#N)c4)c3c2)c(C)n1 [Example 48, 3-((6-(2,4-dimethyl-6-oxopyrimidin-1(6H)-yl)-1H-indol-1-yl)methoxy)benzonitrile] | 350 | 10.60
Cc1cc(=O)n(-c2ccc(N3CCOCC3)c(F)c2)c(COc2ccc(F)c(F)c2)n1 [Example 49, 2-((3,4-difluorophenoxy)methyl)-3-(3-fluoro-4-morpholinophenyl)-6-methylpyrimidin-4(3H)-one] | 70 | 35.52
